One data set relates to A-375. The experiment in a line: Antiproliferative activity against human A375 cells assessed as reduction in cell viability measured after 48 hrs by MTT assay. The format is functional, cell-based. The following applies: Homo sapiens, A-375, 48 h. In general terms: Tetrazolium dyes change colour on reduction, which living cells bring about.
The test system of the next data set is K562. The experiment in a line: Antiproliferative activity against human K562 cells assessed as reduction in cell viability measured after 48 hrs by MTT assay. The format is functional, cell-based. The following applies: Homo sapiens, K562, 48 h.
For another data set, the system named is HeLa. The experiment in a line: Antiproliferative activity against human HeLa cells assessed as reduction in cell viability measured after 48 hrs by MTT assay. The format is functional, cell-based. The following applies: Homo sapiens, HeLa, 48 h.
In data set [1] the target is Dihydroorotate dehydrogenase (quinone), mitochondrial (Homo sapiens, UniProt Q02127). The experiment in a line: Inhibition of human DHODH using dihydroorotate as substrate and CoQ10 as co-substrate preincubated for 30 mins followed by substrate addition by DCIP coupled microplate reader assay.
Data set [2] is described as follows: Solubility of the compound in PBS. The format is physicochemical.
In the next data set the test system is HCT-116. Kind of data set: Antiproliferative activity against human HCT116 cells assessed as reduction in cell viability measured after 48 hrs by MTT assay. The format is functional, cell-based. The following applies: Homo sapiens, HCT-116, 48 h.
The test system of a further data set is Raji. The experiment in a line: Antiproliferative activity against human Raji cells assessed as reduction in cell viability measured after 48 hrs by MTT assay. The data set is classed as functional, cell-based. The following applies: Homo sapiens, Raji, 48 h.
Another data set concerns MCF7. The experiment in a line: Antiproliferative activity against human MCF7 cells assessed as reduction in cell viability measured after 48 hrs by MTT assay. The following applies: Homo sapiens, MCF7, 48 h. The data set is classed as functional, cell-based.
A further data set deals with A549. Kind of data set: Antiproliferative activity against human A549 cells assessed as reduction in cell viability measured after 48 hrs by MTT assay. The format is functional, cell-based. The following applies: Homo sapiens, A549, 48 h.
For the next data set, the system named is NAMALVA. The experiment in a line: Antiproliferative activity against human NAMALWA cells assessed as reduction in cell viability measured after 48 hrs by MTT assay. The data set is classed as functional, cell-based. The following applies: Homo sapiens, NAMALVA, 48 h.

A word on the IC50: it is the concentration that gives 50% inhibition. By solubility is commonly meant the dissolved amount per volume that the medium holds.

Bounds are passed on as bounds.

Dihydroorotate dehydrogenase (quinone), mitochondrial, sequence (Q02127 whole entry): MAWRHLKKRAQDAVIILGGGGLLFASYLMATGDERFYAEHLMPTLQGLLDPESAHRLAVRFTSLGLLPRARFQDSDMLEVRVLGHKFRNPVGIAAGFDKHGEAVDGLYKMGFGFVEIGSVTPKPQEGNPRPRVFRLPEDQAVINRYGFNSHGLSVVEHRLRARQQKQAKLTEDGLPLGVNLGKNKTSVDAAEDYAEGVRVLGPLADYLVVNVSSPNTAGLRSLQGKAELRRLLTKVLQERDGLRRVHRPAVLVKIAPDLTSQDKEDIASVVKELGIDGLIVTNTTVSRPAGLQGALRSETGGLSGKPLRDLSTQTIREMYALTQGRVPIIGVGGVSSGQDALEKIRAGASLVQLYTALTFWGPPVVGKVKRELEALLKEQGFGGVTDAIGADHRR

In the case of `COCc1cccc(-c2c(F)cc(-n3nnc4c3C(=O)c3ccccc3C4=O)cc2F)c1`, the half-inhibitory concentration (IC50) in the data set on A-375 was 180 nM; in the data set with K562 it was > 10 µM; in the data set on HeLa, > 10 µM; in data set [1], 1.6 nM; with HCT-116, 1130 nM; in the data set with Raji it was 1.23 µM. In addition, the 50% inhibitory concentration (IC50) with MCF7, in the data set on A549 and in the data set with NAMALVA was > 10 µM each time. Further, the solubility in data set [2] was < 10 µg/mL.
As for `O=C1c2ccccc2C(=O)c2c1nnn2-c1cc(F)c(-c2ccc(F)cc2)c(F)c1`, the IC50 in the data set on A-375 was 1580 nM; in the data set with K562, > 10 µM; in the data set with HeLa, > 10 µM; in data set [1], 6.9 nM; in the data set on HCT-116, 2250 nM; with Raji it was > 10 µM. Besides, the IC50 in the data set on MCF7, with A549 and in the data set with NAMALVA was > 10 µM in each case.
For the compound `COc1cc(-c2ccc(-n3nnc4c3C(=O)c3ccccc3C4=O)cc2)cc(OC)c1OC`, the half-inhibitory concentration (IC50) in [1] was > 1000 nM.
Same read-out and setting: in the case of `O=C1c2ccccc2C(=O)c2c1nnn2-c1ccnc(Cl)c1` it was > 1000 nM; in that of `O=C1c2ccccc2C(=O)c2c1nnn2-c1cccc(O)c1`, > 1000 nM; in that of `O=C1c2ccccc2C(=O)c2c1nnn2-c1ccc2c(c1)OCO2`, > 1000 nM.
In the case of `COc1ccc2c(c1)C(=O)c1nnn(-c3cc(F)c(-c4ccccc4F)c(F)c3)c1C2=O`, the IC50 in [1] is > 1000 nM.
As to `OC1c2ccccc2C(O)c2c1nnn2-c1cc(F)c(-c2ccccc2F)c(F)c1` (stereo unspecified), the IC50 in the data set with A-375 was 160 nM; in the data set with K562, > 10 µM; in the data set on HeLa, > 10 µM; in data set [1], 5.1 nM; in the data set on HCT-116, 580 nM; with Raji, > 10 µM. The IC50 with MCF7, in the data set on A549 and in the data set on NAMALVA was > 10 µM in each case. Further, the solubility in data set [2] was < 10 µg/mL.
Take `O=C1c2ccccc2C(=O)c2c1nnn2-c1ccc(-c2cc(C(F)(F)F)cc(C(F)(F)F)c2)cc1`: the IC50 in data set [1] was > 1000 nM.
Take `O=C1c2cc(O)ccc2C(=O)c2c1nnn2-c1cc(F)c(-c2ccccc2F)c(F)c1`: in data set [1], the IC50 is > 1000 nM.
With `O=C1c2ccccc2C(=O)c2c1nnn2-c1ccc(-c2ccncc2)cc1`, the half-inhibitory concentration (IC50) in data set [1] is > 1000 nM.
On the same count and under the same terms, as for `O=C1c2cc(F)ccc2C(=O)c2c1nnn2-c1cc(F)c(-c2ccccc2F)c(F)c1`, the figure is 98 nM.
For the compound `O=C1c2ccccc2C(=O)c2c1nnn2-c1nc2ccccc2[nH]1`, in data set [1], the IC50 is > 1000 nM.
The same measure, in the same setting: as for `CC1(C)CC(=O)c2nnn(-c3cc(F)c(-c4ccccc4F)c(F)c3)c2C1`, the figure is > 1000 nM; as for `Nc1cccc(-n2nnc3c2C(=O)c2ccccc2C3=O)c1`, > 1000 nM.
Still for that read-out and setting: as for `COc1ccccc1-n1nnc2c1C(=O)c1ccccc1C2=O`, the figure is > 1000 nM.
In data set [1], `COC(=O)c1cccc(-c2ccc(-n3nnc4c3C(=O)c3ccccc3C4=O)cc2)c1` came in with a half-inhibitory concentration (IC50) of 550 nM.
For `O=C1c2ccccc2C(=O)c2c1nnn2-c1ccc(-c2cccc(F)c2)cc1`, the concentration for half-maximal inhibition (IC50) in data set [1] turned out to be 56 nM.
Turning to `O=C(c1ccccc1)c1cn(-c2cc(F)c(-c3ccccc3F)c(F)c2)nn1`, the half-maximal inhibitory concentration (IC50) in data set [1] was > 1000 nM.
For the compound `O=C1c2ccccc2C(=O)c2c1nnn2-c1ccc(-c2cncnc2)cc1`, the half-inhibitory concentration (IC50) in data set [1] is > 1000 nM.
Still for that read-out and setting: as for `Cc1cc(-c2ccc(-n3nnc4c3C(=O)c3ccccc3C4=O)cc2)ccn1`, the figure is > 1000 nM; as for `N#Cc1cccc(-n2nnc3c2C(=O)c2ccccc2C3=O)c1`, > 1000 nM.
On to `Cc1cc(-n2nnc3c2C(=O)c2ccccc2C3=O)ccc1F`, for which the IC50 in data set [1] is > 1000 nM.
`O=C1c2ccccc2C(=O)c2c1nnn2-c1ccc(Cl)nc1`: the half-inhibitory concentration (IC50) in data set [1] was > 1000 nM.
In the case of `Cc1ccc(-n2nnc3c2C(=O)c2ccccc2C3=O)cc1C(F)(F)F`, the half-maximal inhibitory concentration (IC50) in data set [1] is > 1000 nM.
For the compound `Nc1ccc(-c2ccc(-n3nnc4c3C(=O)c3ccccc3C4=O)cc2)cc1`, the 50% inhibitory concentration (IC50) was 1900 nM in the data set with A-375; 0.24 µM in the data set with K562; > 10 µM with HeLa; 25 nM in data set [1]; > 10000 nM in the data set on HCT-116; > 10 µM with Raji. Also, the concentration for half-maximal inhibition (IC50) in the data set on MCF7, in the data set with A549 and with NAMALVA was > 10 µM each time.
As to `O=C1c2ccccc2C(=O)c2c1nnn2-c1ccc(-c2cccc(O)c2)cc1`, the concentration for half-maximal inhibition (IC50) was > 10000 nM in the data set on A-375; 7.09 µM in the data set with K562; > 10 µM in the data set on HeLa; 21 nM in data set [1]; > 10000 nM in the data set on HCT-116; 9.04 µM in the data set with Raji. The half-maximal inhibitory concentration (IC50) in the data set with MCF7, with A549 and in the data set on NAMALVA was > 10 µM throughout.
Consider `O=C1c2ccccc2C(=O)c2c1nnn2-c1ccc(N2CCOCC2)nc1`, for which, in data set [1], the half-maximal inhibitory concentration (IC50) is > 1000 nM.
`Fc1ccccc1-c1c(F)cc(-n2cc(-c3ccccc3)nn2)cc1F`: the 50% inhibitory concentration (IC50) in data set [1] was > 1000 nM.
On the same count and under the same terms, in the case of `O=C1c2ccccc2C(=O)c2c1nnn2-c1cccc(I)c1` it was > 1000 nM; in that of `CC(C)c1ccc(-c2ccc(-n3nnc4c3C(=O)c3ccccc3C4=O)c(F)c2)cc1`, > 1000 nM.
For `O=C1CCCc2c1nnn2-c1cc(F)c(-c2ccccc2F)c(F)c1`, in [1], the 50% inhibitory concentration (IC50) is > 1000 nM.
Compound `O=C1c2ccccc2C(=O)c2c1nnn2-c1ccc(-c2cccnc2)cc1` yielded an IC50 in data set [1] of 422 nM.
Same read-out and setting: as for `O=C1c2ccc(F)cc2C(=O)c2c1nnn2-c1cc(F)c(-c2ccccc2F)c(F)c1`, the figure is 152 nM; as for `O=C1c2ccccc2C(=O)c2c1nnn2-c1ccncc1`, > 1000 nM; as for `N#Cc1ccccc1-n1nnc2c1C(=O)c1ccccc1C2=O`, > 1000 nM.
Same read-out and setting: as for `COc1ccc2c(c1)C(=O)c1c(nnn1-c1cc(F)c(-c3ccccc3F)c(F)c1)C2=O`, the figure is > 1000 nM.
Still for that read-out and setting: as for `O=C1c2ccccc2C(=O)c2c1nnn2-c1ccc(-c2ccccc2O)cc1`, the figure is 230 nM; as for `O=C1c2ccccc2C(=O)c2c1nnn2-c1ccc2ccccc2c1`, > 1000 nM; as for `CC(C)C1CC(=O)c2nnn(-c3cc(F)c(-c4ccccc4F)c(F)c3)c2C1` (stereo unspecified), 520 nM.
As to `CC(C)c1ccc(-c2c(F)cc(-n3nnc4c3C(=O)c3ccccc3C4=O)cc2F)cc1`, half-maximal inhibition in [1] (IC50) was put at 76 nM.
`Nc1ccccc1-c1ccc(-n2nnc3c2C(=O)c2ccccc2C3=O)cc1`: the IC50 with A-375 was 1930 nM; in the data set on K562, 2.16 µM; with HeLa, > 10 µM; in data set [1] it was 20 nM; in the data set with HCT-116 it was 2300 nM; in the data set with Raji, 3.84 µM. Moreover, the IC50 in the data set with MCF7 was > 10 µM; in the data set on A549 it was > 10 µM; with NAMALVA, 5.05 µM.
On to `CC(C)c1ccc(-n2nnc3c2C(=O)c2ccccc2C3=O)cc1`, for which the half-maximal inhibitory concentration (IC50) in [1] came out at 560 nM.
Still for that read-out and setting: in the case of `O=C1c2ccccc2C(=O)c2c1nnn2-c1ccccc1C(F)(F)F` it was > 1000 nM.
On the same count and under the same terms, as for `COc1cccc(-c2ccc(-n3nnc4c3C(=O)c3ccccc3C4=O)cc2)c1`, the figure is 100 nM.
Consider `O=C1c2ccc(O)cc2C(=O)c2c1nnn2-c1cc(F)c(-c2ccccc2F)c(F)c1`, for which the IC50 in [1] was > 1000 nM.
Same read-out and setting: in the case of `CC(C)c1ccc(-c2cc(F)c(-n3nnc4c3C(=O)c3ccccc3C4=O)c(F)c2)cc1` it was > 1000 nM.
Regarding `O=C1c2ccccc2C(=O)c2c1nnn2-c1ccc(-c2ccccc2)cc1`, the IC50 was 5830 nM in the data set on A-375; > 10 µM in the data set on K562; > 10 µM in the data set on HeLa; 19 nM in data set [1]; 4230 nM with HCT-116; 4.61 µM in the data set with Raji. Further, the half-inhibitory concentration (IC50) is > 10 µM in the data set on MCF7, > 10 µM with A549 and 1.87 µM in the data set on NAMALVA.

The record behind these values is ChEMBL document CHEMBL4616673 (J Med Chem, 2020).
